# Measured values taken from patent US12109253B2, “Use of IGFBP7 for treating malaria” (AGENCY FOR SCIENCE, TECHNOLOGY AND RESEARCH, priority 2019, dated 2024).
# Values joined by “and” are separate entries in the source; they are usually repeats but may differ in a detail not shown here. Identical values can stand only once.
# How the values were obtained:
# [1] = tested on: cytoadhesive properties of infected erythrocytes; settings: adjunct treatment candidate, phase II clinical trial; cited from earlier work
# [2] = tested on: P. falciparum; test: Rosetting assay (percentage of IRBC that form rosettes), P. falciparum; format: cell-based, Plasmodium falciparum; settings: for effect on rosetting rates of TSP-1 and VWF without IGFBP7: Albumax-supplemented medium, TSP-1 and VWF present together
# Description: (§1) Rosetting assay was conducted when 70% of the parasite population reached late stages (late trophozoites and schizonts) unless stated otherwise. The parasite culture suspension was stained subvitally with Giemsa (5% stain working concentration) for 20 minutes. Subsequently, 7.6 μl stained suspension was pipetted onto a clean glass slide, immediately covered with a 22×32 mm glass cover slip. The wet mount was examined with light microscope using 1000× magnification. Rosetting rate (percentage of rosetting IRBCs) was defined as the percentage of IRBC (over 200 recruited IRBC) that form rosettes. Experiments were conducted in blinded manner.
# (§2) Following data review, coupled with critical information (i.e. the protein's subcellular location and cellular functions) from UNIPROT, candidates were shortlisted for further validation. The parasite culture suspensions were incubated with CSMT and antibodies against the shortlisted proteins (see Table 6, items 35, 37, 39-41) and tested in rosetting assay at a final concentration of 25 μg/ml.
# (§3) The parasite culture suspension was divided into three groups, one served as control, the second group was added with recombinant human IGFBP7 (final concentration 100 ng/ml), and the third group was mixed with CSMT (CSMT:parasite culture=1:3). After one hour of incubation under in vitro cultivation conditions, rosetting assay was conducted. Separately, a portion of the IGFBP7 suspension was heat-denatured at 95° C. for one hour, prior to use in rosetting assay.
# (§4) Parasite cultures were incubated with IGFBP7 (working concentrations 0-25,000 ng/ml) prior to rosetting assay. Time course experiments were performed with laboratory-adapted P. falciparum lines (3D7, MKK183, FVT402, FVT201, WPP3065) incubated with IGFBP7 (100 ng/ml). Rosetting assay was conducted after five minutes, using 7 μl of the suspension. The remaining suspension was kept back into the incubator. Rosetting assay was repeated at five minute-intervals until one hour-post-IGFBP7 exposure. Reversibility of IGFBP7-mediated rosette-stimulation was also tested. Parasite lines (3D7, MKK183, FVT402, FVT201, WPP3065) were incubated with IGFBP7 (100 ng/ml) and rosetting assay was conducted with 7 μl of the suspension. The remaining suspension was centrifuged at 1500 g for five minutes. Supernatant was removed, and the pellet was washed thrice with culture medium, followed by re-suspension with culture medium. Five minutes later, 7 μl of the suspension was taken for rosetting assay, subsequently repeated at five minute-intervals up to one-hour post-IGFBP7 removal.
# (§5) Magnetic activated cell sorter (MACS)-sorted late stage-IRBC (purity 95%) were trypsinized at different working concentrations. The first group was mixed with enzyme trypsin (final trypsin concentration of 10 μg/ml), and the second was mixed with enzyme trypsin (final trypsin concentration of 1 mg/ml). The third served as untreated control. The cells were incubated at 37° C. for 30 minutes. After that, the cells were washed with serum-enriched medium for three times. Each group was incubated with or without IGFBP7 (100 ng/ml) prior to rosetting assay. P. falciparum line CS2 deficient of SBP1 [(SBP1-KO-CS2), which lacks P. falciparum erythrocyte membrane protein 1 (PFEMP1) on its IRBC surface] and its wild type (CS2-WT) counterpart were cultured as described. Their rosetting rates post-incubation with IGFBP7 at different concentrations were determined. P. falciparum clones NF54 VAR2CSA_WT and NF54_T934D (cannot express PfEMP1 variant VAR2CSA on IRBC surface^32) were cultivated. Experiments were conducted when parasite population reached late stages. For each parasite line, two conditions were applied; one was incubated with IGFBP7 (100 ng/ml) whereas the other one acted as IGFBP7-free control. Rosetting assay was conducted afterwards. Five replicates were conducted for each experiment setting. […]
# [3] = tested on: peripheral monocytes; test: IRBC phagocytosis by CD14+ peripheral monocytes; format: cell-based, human; settings: IGFBP7 100 ng/ml, Pf line NHP1106, biological replicates
# [4] = tested on: hCMEC/D3; test: IRBC-endothelial cytoadhesion to hCMEC/D3; format: cell-based, Plasmodium falciparum
# Source text: Following this we investigated the relationship between IGFBP7, rosetting and IRBC-endothelial cytoadhesion. As expected, IGFBP7 stimulated rosetting of the recruited laboratory-adapted P. falciparum. […] How about the already endothelial-cytoadhered IRBCs? […] Clearly, presence of IGFBP7 interfered with the dynamics between IRBC-endothelial cytoadhesion and IRBC-rosetting.
# Is the IGFBP7-induced reversal of IRBC-endothelial cytoadhesion mediated via the IGFBP7-stimulated rosetting? Or are the two events occurring concomitantly? […] The two events are likely to happen in parallel instead of being a cause-effect relationship.
# [5] = tested on: THP-1; test: IRBC phagocytosis by THP-1; format: cell-based, human
# [6] = tested on: THP-1; test: Zymosan A phagocytosis by THP-1 (control experiment); format: cell-based, human; settings: IGFBP7 100 ng/ml one hour, then Zymosan A 10 μg/ml one hour
# Description: THP-1 is cultivated and expanded into three batches. For each batch of culture, 1×10^6 cells were incubated with IGFBP7 (working concentration 100 ng/ml) for one hour at in vitro cultivation conditions. Another set of cells acted as IGFBP7-free control. Subsequently, Zymosan A (working concentration 10 μg/ml) was added to both sets of cells and incubated for another one hour at in vitro cultivation conditions. Supravital staining with Giemsa was done for 15 minutes following this. Using wet mount technique, the percentage of THP-1 cells which has engulfed Zymosan A was determined as phagocytosis rate by recruiting 1,000 THP-1 cells. The experiment was repeated with the other two batches of THP-1 culture. And all the steps were repeated for another two times using THP-1 cultures thawed at different time points. P. falciparum lines (3D7, MKK183, FVT402, FVT201, CS2_WT) were incubated with or without IGFBP7 in serum-enriched medium prior to rosetting assay. Subsequently, THP-1 were added. Using wet mount technique, the IRBC phagocytosis rates were determined following the same formula to determine phagocytosis rate in the Zymosan A experiment. […]
# [7] = tested on: P. vivax; test: Rosetting assay (percentage of IRBC that form rosettes), P. vivax; format: cell-based, Plasmodium vivax
# Description: as §1, §2, §3, §4, §5
# [8] = tested on: Plasmodium berghei ANKA line expressing luciferase (PbAluc); test: Experimental cerebral malaria (ECM) in PbAluc infected C57BL/6 mice; format: in vivo
# Description: Here, we set out to determine the effect of IGFBP7 administration on mice. In particular, we set out to determine the dose and protection from ECM death of mouse IGFBP7 administered i.v. on days 5-12 post-infection (dpi) to Plasmodium berghei ANKA line expressing luciferase (PbAluc) infected C57BL/6 mice.
# IGFBP7 was suspended in 1×PBS (concentrations: 0, 50, 100, 200, 1000, and 5000 ng/ml). A separate aliquot of IGFBP7 (5000 ng/ml) was prepared and boiled for one hour, to be used as control.
# For each protein concentration group, I.V. administration of 100 μl per mouse was done.
# Mice were infected with PbAluc. Prior to infection, an aliquot of serum was collected for each mouse using blood collected through orbital bleeding. Sera were also collected on days 3 and 6 post-infection (dpi) for further testing in future.
# I.V. administration was done on daily basis from 5-12 dpi. The n number for each concentration group was 8 except group 5 ng/mouse (n=7) and group 500 ng/mouse (n=5).
# The mice were monitored daily, and their signs and symptoms were observed. Dead mice were removed.
# Survival of mice within the experimental cerebral malaria (ECM) period (6-12 dpi) across the experimental groups was recorded.
# Mice that survived the ECM period were monitored until their death by malaria-induced anemia.
# [9] = Albumax-supplemented medium with IGFBP7 100 ng/ml and TSP-1 10 ng/ml
substance,measurement,setting,value
Curdlan sulfate,effect on pathology of patients,[1],reduce the severe pathology development
"VWF: Recombinant human VWF (rhVWF), serum co-factor of IGFBP7-mediated rosetting",VWF concentration at which optimal increment attained,[2]; [9],0.5 IU/ml
same,VWF concentration sufficient to significantly increase rosetting rates,[2]; [9],0.125 IU/ml
same,effect on rosetting rates of TSP-1 and VWF without IGFBP7,[2],could not increase the rosetting rates
same,effect of VWF by itself on rosetting,"[2]; VWF 1 IU/ml, no IGFBP7, 20% and 2% serum medium",did not stimulate rosetting
insulin-like growth factor binding protein 7 [IGFBP7],phagocytosis rates,[3],6.0% and 10.0% and 9.0% and 11.0% and 4.0%
same,effect on rosetting rates with VWF in Albumax medium,"[2]; 0.25% Albumax II medium, IGFBP7 100 ng/ml, VWF 0-2.0 IU/ml, no TSP-1",did not significantly increase rosetting rates
same,IGFBP7-induced rosetting in filtered serum,"[2]; 20% human serum filtered with 0.45 μm filter, IGFBP7 100 ng/ml",abolished
same,rosette-stimulating capacity after heat denaturation,"[2]; 95° C. for one hour, Pf n=5",abolished
same,effect on rosetting rate,[2]; CS2 wild-type parasite,increased
same,effect on rosetting of trypsin-treated IRBC,"[2]; IRBC treated with 10 μg/ml or 1 mg/ml trypsin, IGFBP7 100 ng/ml, Pf n=5",did not significantly alter rosetting
same,rosetting rates,"[2]; NF54 T934D (no VAR2CSA on IRBC surface), IGFBP7 100 ng/ml, one hour, biological replicates",0.5% (2×) and 1.5% (2×) and 1.0%
same,rosetting rates,"[2]; NF54 VAR2CSA_WT, IGFBP7 100 ng/ml, one hour, biological replicates",5.0% and 7.0% and 4.5% and 4.0% and 6.5%
same,rosetting rates,"[2]; Pf co-incubated with THP-1, IGFBP7 100 ng/ml, biological replicates",11.0% and 13.0% and 16.0% and 9.0% and 10.0%
same,rosetting rates,"[2]; Pf co-incubated with monocytes, IGFBP7 100 ng/ml, biological replicates",14.0% and 18.0% and 15.0% and 17.0% and 10.0%
same,concentration at which significant rosette-stimulation noted,"[2]; Pf n=7, one hour incubation, 0-25,000 ng/ml tested",50 ng/mL
same,concentration from which significant rosette-stimulation was noted,[2]; PfCS2-WT,100 ng/mL
same,effect on rosetting rate,[2]; SBP1-KO-CS2 (no PfEMP1 on IRBC surface),no effect
same,effect on rosetting with URBC of different ABO blood groups,"[2]; URBC groups A, B, O, AB, rhIGFBP7 100 ng/ml, Pf n=7",significantly increase rosetting rates regardless of the blood groups
same,rosetting with heparinase-treated URBC,"[2]; URBC treated with heparinase I or III 25 μg/ml, purified Pf IRBC",did not induce rosetting
same,rosetting rates of IRBCs detached from hCMEC/D3,"[2]; after co-incubation with URBCs and IGFBP7, all parasite lines recruited",5-25%
same,rosette formation prior to THP-1 exposure,"[2]; five different P. falciparum lines, IGFBP7-incubated",formed more rosettes
same,minimum time to significantly stimulate rosetting,"[2]; lab-adapted Pf n=5, IGFBP7 100 ng/ml",≥ 15 min
same,time after protein removal at which rosetting rates revert to baseline,"[2]; lab-adapted Pf n=5, after IGFBP7 100 ng/ml exposure and washing",15 min
same,rosetting rates,"[2]; late ring stages (hour 16-26) of NHP1106, IGFBP7 100 ng/ml, replicates flask/cycle",8.5% and 7.0% (2×) and 8.0% (2×) and 6.0% (3×) and 5.0%
same,concentration at which rosette stimulation reaches a plateau,"[2]; leukocyte-free parasite culture, P. falciparum isolates",100 ng/mL
same,effect on rosetting rates in 2% serum,"[2]; medium with only 2% serum, IGFBP7 100 ng/ml, no VWF added",could not increase rosetting rates
same,cytoadhesion of already hCMEC/D3-cytoadhering IRBCs,[4]; incubation of cytoadhering IRBCs with IGFBP7,reduced IRBC-endothelial cytoadhesion
same,IRBC-endothelial cytoadhesion of IGFBP7-primed packed cells,"[4]; rosette-stimulated cells then co-incubated with hCMEC/D3, vs non-IGFBP7-primed",lower rate of IRBC-endothelial cytoadhesion
same,phagocytosis rates,"[5]; THP-1, IGFBP7 100 ng/ml, Pf line NHP1106, biological replicates",10.0% (2×) and 5.0% and 11.0% and 8.0%
same,IRBC phagocytosis compared with non-IGFBP7-exposed counterparts,"[5]; five different P. falciparum lines, IGFBP7-incubated prior to THP-1 exposure",significantly less phagocytosed
same,effect on phagocytosis ability of THP-1,[6],increased
same,rosette-stimulating capacity after heat denaturation,"[7]; 95° C. for one hour, Pv n=4",abolished
same,effect on rosetting of trypsin-treated IRBC,"[7]; IRBC treated with 10 μg/ml or 1 mg/ml trypsin, IGFBP7 100 ng/ml, Pv n=4",did not significantly alter rosetting
same,concentration at which significant rosette-stimulation noted,"[7]; Pv n=7, one hour incubation, 0-25,000 ng/ml tested",50 ng/mL
same,effect on rosetting with URBC of different ABO blood groups,"[7]; URBC groups A, B, O, AB, rhIGFBP7 100 ng/ml, Pv n=7",significantly increase rosetting rates regardless of the blood groups
same,rosetting with heparinase-treated URBC,"[7]; URBC treated with heparinase I or III 25 μg/ml, purified Pv IRBC",did not induce rosetting
same,concentration at which rosette stimulation reaches a plateau,"[7]; leukocyte-free parasite culture, P. vivax isolates",100 ng/mL
same,ECM death compared with control group,"[8]; 10, 20, 100, and 500 ng/mouse i.v. daily 5-12 dpi, vs denatured IGFBP7",significantly lower ECM death
same,survival rate compared with control,"[8]; 10, 20, 100 and 500 ng/mouse i.v. daily 5-12 dpi, vs denatured 500 ng/mouse IGFBP7, till 25 dpi",significant difference in survival rate
same,signs of cerebral malaria,"[8]; groups 10, 20, 100 and 500 ng/mouse, after 8 dpi",reversal of CM signs
same,dose adequate to confer protection from cerebral malaria,[8]; i.v. daily 5-12 dpi,10 ng/mouse
"TSP-1: rhTSP-1 (thrombospondin-1), serum co-factor of IGFBP7-mediated rosetting",effect on rosetting rates of TSP-1 and VWF without IGFBP7,[2],could not increase the rosetting rates
same,TSP-1 concentration enough to optimally facilitate IGFBP7-mediated rosette-stimulation,"[2]; serum-free (Albumax-supplemented medium), IGFBP7 100 ng/ml, with VWF",10 ng/mL
